Values of other authors in patent US20130190499A1, “Azaisoquinolinone derivatives as NK3 antagonists” (H. Lundbeck A/S, priority 2010, published 2013).

Biological target: T1, NK3 (Homo sapiens, UniProt P29371)
T1 sequence (P29371 1-465): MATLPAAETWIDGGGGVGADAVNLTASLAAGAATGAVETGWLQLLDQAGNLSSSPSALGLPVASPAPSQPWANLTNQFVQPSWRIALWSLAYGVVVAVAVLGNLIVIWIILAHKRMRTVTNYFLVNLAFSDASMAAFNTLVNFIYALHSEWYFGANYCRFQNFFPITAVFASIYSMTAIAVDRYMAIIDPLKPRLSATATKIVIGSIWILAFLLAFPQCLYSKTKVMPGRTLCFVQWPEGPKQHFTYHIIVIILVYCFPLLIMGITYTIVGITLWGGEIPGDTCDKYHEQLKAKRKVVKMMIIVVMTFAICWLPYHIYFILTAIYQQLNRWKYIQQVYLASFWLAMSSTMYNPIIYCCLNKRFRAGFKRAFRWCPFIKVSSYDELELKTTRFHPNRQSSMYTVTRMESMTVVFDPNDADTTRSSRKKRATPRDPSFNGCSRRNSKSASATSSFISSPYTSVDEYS

CC[C@H](NC(=O)c1c(O)c(-c2ccccc2)nc2ccccc12)c1ccccc1 [talnetant]
Effect in clinical trials on cognitive behaviour of schizophrenics (schizophrenics): ameliorate the cognitive behaviour of schizophrenics

CC(=O)N(C)C1(c2ccccc2)CCN(CCC[C@]2(c3ccc(Cl)c(Cl)c3)CCCN(C(=O)c3ccccc3)C2)CC1 [Osanetant]
Effect in clinical trials, in particular on positive symptoms of psychosis (versus placebo, delusions, hallucinations and paranoia): superior to placebo
